Data from ChEMBL document CHEMBL3813659 (Bioorg Med Chem, 2016).

How the values were obtained:
[1] = molecular target: T1, Oxytocin receptor (Homo sapiens, UniProt P30559); test: Agonist activity at human oxytocin receptor expressed in CHO cells assessed as increase in intracellular calcium flux measured for 90 sec by fluo-4 dye based FLIPR assay; type: functional, cell-based
T1 sequence (P30559 whole entry): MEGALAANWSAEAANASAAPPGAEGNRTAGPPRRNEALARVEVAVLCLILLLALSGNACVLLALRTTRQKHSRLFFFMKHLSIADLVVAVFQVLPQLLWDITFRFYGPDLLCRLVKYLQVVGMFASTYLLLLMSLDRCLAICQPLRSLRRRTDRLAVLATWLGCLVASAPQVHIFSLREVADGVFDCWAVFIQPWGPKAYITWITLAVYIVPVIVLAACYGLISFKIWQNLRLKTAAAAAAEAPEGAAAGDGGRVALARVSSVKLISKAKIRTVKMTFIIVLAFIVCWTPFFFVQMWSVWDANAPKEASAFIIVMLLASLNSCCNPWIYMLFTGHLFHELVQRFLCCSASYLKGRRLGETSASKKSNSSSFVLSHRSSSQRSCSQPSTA

[2] = molecular target: T2, Oxytocin receptor (Homo sapiens) (UniProt P30559); test: Intrinsic agonist activity at human oxytocin receptor expressed in CHO cells assessed as increase in intracellular calcium flux measured for 90 sec by fluo-4 dye based FLIPR assay relative to control; type: functional, cell-based
T2 sequence (whole entry): T1 sequence (P30559 whole entry)

[3] = molecular target: T1, Oxytocin receptor; test: Displacement of [3H]8-arginine-vasopressin from human oxytocin receptor expressed in CHO cell membrane incubated for 1 hr by liquid scintillation counting method; type: cell membranes

EC50 [1] [nM]	Intrinsic activity [2] [%]	Ki [3] [nM]	Compound
10.8	90	34.3	CC[C@H](C)[C@@H]1NC(=O)[C@H](Cc2ccc(O)cc2)NC(=O)[C@@H](N)CSSC[C@@H](C(=O)N2CCC[C@H]2C(=O)N[C@@H](CC(C)C)C(=O)N(C)CC(N)=O)N(C)C(=O)[C@H](CC(N)=O)NC(=O)[C@H](CCC(N)=O)NC1=O
175	81	98.6	CC[C@H](C)[C@@H]1NC(=O)[C@H](Cc2ccc(O)cc2)NC(=O)[C@@H](NC)CSSC[C@@H](C(=O)N2CCC[C@H]2C(=O)N[C@@H](CC(C)C)C(=O)NCC(N)=O)N(C)C(=O)[C@H](CC(N)=O)NC(=O)[C@H](CCC(N)=O)NC1=O
14.7	100	113	CC[C@H](C)[C@H]1C(=O)N[C@@H](CCC(N)=O)C(=O)N[C@@H](CC(N)=O)C(=O)N[C@H](C(=O)N2CCC[C@H]2C(=O)N[C@@H](CC(C)C)C(=O)NCC(N)=O)CSSC[C@H](N)C(=O)N[C@@H](Cc2ccc(O)cc2)C(=O)N1C
23.9	98	6.76	CC[C@H](C)[C@@H]1NC(=O)[C@H](Cc2ccc(O)cc2)N(C)C(=O)[C@@H](N)CSSC[C@@H](C(=O)N2CCC[C@H]2C(=O)N[C@@H](CC(C)C)C(=O)NCC(N)=O)NC(=O)[C@H](CC(N)=O)NC(=O)[C@H](CCC(N)=O)NC1=O
26	100	31.5	CC[C@H](C)[C@@H]1NC(=O)[C@H](Cc2ccc(O)cc2)NC(=O)[C@@H](N)CSSC[C@@H](C(=O)N2CCC[C@H]2C(=O)N[C@@H](CC(C)C)C(=O)NCC(N)=O)NC(=O)[C@H](CC(N)=O)N(C)C(=O)[C@H](CCC(N)=O)NC1=O
15.6	83	68.5	CC[C@H](C)[C@@H]1NC(=O)[C@H](Cc2ccc(O)cc2)NC(=O)[C@@H](N)CSSC[C@@H](C(=O)N2CCC[C@H]2C(=O)N(C)[C@@H](CC(C)C)C(=O)NCC(N)=O)N(C)C(=O)[C@H](CC(N)=O)NC(=O)[C@H](CCC(N)=O)NC1=O
283	94		CC[C@H](C)[C@H]1C(=O)N[C@@H](CCC(N)=O)C(=O)N[C@@H](CC(N)=O)C(=O)N(C)[C@H](C(=O)N2CCC[C@H]2C(=O)N[C@@H](CC(C)C)C(=O)NCC(N)=O)CSSC[C@H](N)C(=O)N[C@@H](Cc2ccc(O)cc2)C(=O)N1C
4.77	102	5.47	CC[C@H](C)[C@@H]1NC(=O)[C@H](Cc2ccc(O)cc2)NC(=O)[C@@H](NC)CSSC[C@@H](C(=O)N2CCC[C@H]2C(=O)N[C@@H](CC(C)C)C(=O)NCC(N)=O)NC(=O)[C@H](CC(N)=O)NC(=O)[C@H](CCC(N)=O)NC1=O
0.99	95	1.05	CC[C@H](C)[C@@H]1NC(=O)[C@H](Cc2ccc(O)cc2)NC(=O)[C@@H](N)CSSC[C@@H](C(=O)N2CCC[C@H]2C(=O)N[C@@H](CC(C)C)C(=O)NCC(N)=O)N(C)C(=O)[C@H](CC(N)=O)NC(=O)[C@H](CCC(N)=O)NC1=O
6.98	78		CC[C@H](C)[C@@H]1NC(=O)[C@H](Cc2ccc(O)cc2)N(C)C(=O)[C@@H](N)CSSC[C@@H](C(=O)N2CCC[C@H]2C(=O)N[C@@H](CC(C)C)C(=O)NCC(N)=O)N(C)C(=O)[C@H](CC(N)=O)NC(=O)[C@H](CCC(N)=O)NC1=O
0.29	84		CC[C@H](C)[C@@H]1NC(=O)[C@H](Cc2ccc(O)cc2)NC(=O)CCSSC[C@@H](C(=O)N2CCC[C@H]2C(=O)N[C@@H](CC(C)C)C(=O)NCC(N)=O)N(C)C(=O)[C@H](CC(N)=O)NC(=O)[C@H](CCC(N)=O)NC1=O
7.98	97		CC[C@H](C)[C@@H]1NC(=O)[C@H](Cc2ccc(O)cc2)N(C)C(=O)CCSSC[C@@H](C(=O)N2CCC[C@H]2C(=O)N[C@@H](CC(C)C)C(=O)NCC(N)=O)N(C)C(=O)[C@H](CC(N)=O)NC(=O)[C@H](CCC(N)=O)NC1=O

Further lines, the compound ahead of its results:

Compound	EC50 [1] [nM]	Intrinsic activity [2] [%]	Ki [3] [nM]
CC[C@H](C)[C@H]1C(=O)N[C@@H](CCC(N)=O)C(=O)N[C@@H](CC(N)=O)C(=O)N(C)[C@H](C(=O)N2CCC[C@H]2C(=O)N[C@@H](CC(C)C)C(=O)NCC(N)=O)CSSCCC(=O)N[C@@H](Cc2ccc(O)cc2)C(=O)N1C	> 1000		
CC[C@H](C)[C@@H]1NC(=O)[C@H](Cc2ccc(O)cc2)NC(=O)CCSSC[C@@H](C(=O)N2CCC[C@H]2C(=O)N[C@@H](CC(C)C)C(=O)NCC(N)=O)NC(=O)[C@H](CC(N)=O)NC(=O)[C@H](CCC(N)=O)NC1=O		106	0.33
CC[C@H](C)[C@@H]1NC(=O)[C@H](Cc2ccc(O)cc2)NC(=O)CCSSC[C@@H](C(=O)N2CCC[C@H]2C(=O)N[C@@H](CC(C)C)C(=O)N(C)CC(N)=O)N(C)C(=O)[C@H](CC(N)=O)NC(=O)[C@H](CCC(N)=O)NC1=O	2.41	84	
CC[C@H](C)[C@@H]1NC(=O)[C@H](Cc2ccc(O)cc2)NC(=O)[C@@H](N)CSSC[C@@H](C(=O)N2CCC[C@H]2C(=O)N[C@@H](CC(C)C)C(=O)N(C)CC(N)=O)NC(=O)[C@H](CC(N)=O)NC(=O)[C@H](CCC(N)=O)NC1=O	0.47	102	1.32
CC[C@H](C)[C@@H]1NC(=O)[C@H](Cc2ccc(O)cc2)NC(=O)[C@@H](N)CSSC[C@@H](C(=O)N2CCC[C@H]2C(=O)N[C@@H](CC(C)C)C(=O)NCC(N)=O)NC(=O)[C@H](CC(N)=O)NC(=O)[C@H](CCC(N)=O)NC1=O		102	
CC[C@H](C)[C@@H]1NC(=O)[C@H](Cc2ccc(O)cc2)NC(=O)[C@@H](N)CSSC[C@@H](C(=O)N2CCC[C@H]2C(=O)N(C)[C@@H](CC(C)C)C(=O)NCC(N)=O)NC(=O)[C@H](CC(N)=O)NC(=O)[C@H](CCC(N)=O)NC1=O	0.52	97	0.97
CC[C@H](C)[C@@H]1NC(=O)[C@H](Cc2ccc(O)cc2)NC(=O)CCSSC[C@@H](C(=O)N2CCC[C@H]2C(=O)N(C)[C@@H](CC(C)C)C(=O)N(C)CC(N)=O)NC(=O)[C@H](CC(N)=O)NC(=O)[C@H](CCC(N)=O)NC1=O	0.59	86	
CC[C@H](C)[C@@H]1NC(=O)[C@H](Cc2ccc(O)cc2)NC(=O)[C@@H](N)CSSC[C@@H](C(=O)N2CCC[C@H]2C(=O)N(C)[C@@H](CC(C)C)C(=O)N(C)CC(N)=O)NC(=O)[C@H](CC(N)=O)NC(=O)[C@H](CCC(N)=O)NC1=O	5.52	96	10.7
CC[C@H](C)[C@@H]1NC(=O)[C@H](Cc2ccc(O)cc2)NC(=O)CCSSC[C@@H](C(=O)N2CCC[C@H]2C(=O)N(C)[C@@H](CC(C)C)C(=O)NCC(N)=O)N(C)C(=O)[C@H](CC(N)=O)NC(=O)[C@H](CCC(N)=O)NC1=O	4.23	86	
CC[C@H](C)[C@@H]1NC(=O)[C@H](Cc2ccc(O)cc2)NC(=O)[C@@H](N)CSSC[C@@H](C(=O)N2CCC[C@H]2C(=O)N[C@@H](CC(C)C)C(=O)NCC(N)=O)NC(=O)[C@H](CC(N)=O)NC(=O)[C@H](CCC(N)=O)N(C)C1=O	> 1000		> 1010
